One assay deals with T1, CB2 (h) (Homo sapiens, UniProt P34972).
T1 construct: expressed in transfected cells; host or cells: CHO cells
The assay is described as follows: CEREP panel CB2 (h) antagonist effect, cAMP HTRF. The assay is classed as cell-based. The following applies: HCl salt tested; CHO cells, WIN 55212-2 (3 nM). An excerpt:
(§1) The use of in vitro pharmacological screening against a diverse range of targets (receptors, ion channels, enzymes and transporters) is used to identify undesirable off-target activity that may cause adverse drug reactions in humans. Screening panels (e.g. SafetyScreen44™ Panel, Eurofins) comprise a selection of off-targets linked with known issues in humans that could hinder or halt the development of drug candidates or market withdrawal if discovered after a drug is approved. The HCl salts of the S enantiomer and the R enantiomer of compound A were tested against a panel of such targets.
(§2) The tests were carried out according to the methods described in the following tables and indicated literature references.
(In general: In TR-FRET formats the signal depends on donor and acceptor labels being close together.)

A further assay addresses T2, M1 (h) (Homo sapiens, UniProt P11229).
T2 construct: expressed in transfected cells; host or cells: CHO cells
T2 sequence (P11229 1-460): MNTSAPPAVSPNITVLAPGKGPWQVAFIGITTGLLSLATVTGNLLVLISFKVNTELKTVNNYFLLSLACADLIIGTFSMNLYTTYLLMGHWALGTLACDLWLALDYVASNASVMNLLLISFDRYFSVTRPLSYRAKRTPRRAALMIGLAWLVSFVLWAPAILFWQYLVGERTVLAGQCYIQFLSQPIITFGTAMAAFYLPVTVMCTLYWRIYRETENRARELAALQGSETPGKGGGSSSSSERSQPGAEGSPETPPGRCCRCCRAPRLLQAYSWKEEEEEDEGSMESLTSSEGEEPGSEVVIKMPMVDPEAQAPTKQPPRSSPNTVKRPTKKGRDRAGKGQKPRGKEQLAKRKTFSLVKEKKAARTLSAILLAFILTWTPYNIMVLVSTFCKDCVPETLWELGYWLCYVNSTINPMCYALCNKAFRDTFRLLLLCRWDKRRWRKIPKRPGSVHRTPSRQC
The assay can be described thus: CEREP panel M1 (h) antagonist effect, intracellular Ca2+ fluorimetry. The assay is classed as cell-based. The following applies: HCl salt tested; CHO cells, acetylcholine (10 nM).
Source text: as §1, §2

The target of another assay is T3, MAO-A (Rattus norvegicus, UniProt P21396).
T3 sequence (P21396 1-526): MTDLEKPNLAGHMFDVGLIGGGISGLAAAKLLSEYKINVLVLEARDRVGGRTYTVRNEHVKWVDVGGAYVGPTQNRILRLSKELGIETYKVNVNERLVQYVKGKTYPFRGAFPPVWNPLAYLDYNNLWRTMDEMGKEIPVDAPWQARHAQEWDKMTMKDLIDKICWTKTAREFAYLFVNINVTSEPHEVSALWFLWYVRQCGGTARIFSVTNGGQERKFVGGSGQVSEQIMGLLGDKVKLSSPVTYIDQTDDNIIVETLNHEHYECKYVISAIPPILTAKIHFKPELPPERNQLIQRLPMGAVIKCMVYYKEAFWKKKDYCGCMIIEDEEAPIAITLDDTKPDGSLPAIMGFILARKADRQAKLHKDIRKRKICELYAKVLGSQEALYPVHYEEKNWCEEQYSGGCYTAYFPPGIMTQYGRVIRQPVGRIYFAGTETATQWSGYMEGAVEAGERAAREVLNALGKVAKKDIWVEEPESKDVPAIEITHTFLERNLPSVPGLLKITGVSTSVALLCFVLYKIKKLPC
The assay can be described thus: CEREP panel MAO-A (antagonist radioligand). The assay is classed as binding. The following applies: HCl salt tested.
Source text: as §1, §2

For assay [1], the target named is T4, Norepinephrine transporter (Homo sapiens, UniProt P23975).
T4 construct: expressed in transfected cells
The assay is described as follows: CEREP panel norepinephrine transporter uptake (h), [3H]NE incorporation. Conditions: HCl salt tested; [3H]NE incorporation into cells. The assay is classed as cell-based.
Source text: as §1, §2

SMILES strings stand for the structures.

T4 sequence (P23975 whole entry): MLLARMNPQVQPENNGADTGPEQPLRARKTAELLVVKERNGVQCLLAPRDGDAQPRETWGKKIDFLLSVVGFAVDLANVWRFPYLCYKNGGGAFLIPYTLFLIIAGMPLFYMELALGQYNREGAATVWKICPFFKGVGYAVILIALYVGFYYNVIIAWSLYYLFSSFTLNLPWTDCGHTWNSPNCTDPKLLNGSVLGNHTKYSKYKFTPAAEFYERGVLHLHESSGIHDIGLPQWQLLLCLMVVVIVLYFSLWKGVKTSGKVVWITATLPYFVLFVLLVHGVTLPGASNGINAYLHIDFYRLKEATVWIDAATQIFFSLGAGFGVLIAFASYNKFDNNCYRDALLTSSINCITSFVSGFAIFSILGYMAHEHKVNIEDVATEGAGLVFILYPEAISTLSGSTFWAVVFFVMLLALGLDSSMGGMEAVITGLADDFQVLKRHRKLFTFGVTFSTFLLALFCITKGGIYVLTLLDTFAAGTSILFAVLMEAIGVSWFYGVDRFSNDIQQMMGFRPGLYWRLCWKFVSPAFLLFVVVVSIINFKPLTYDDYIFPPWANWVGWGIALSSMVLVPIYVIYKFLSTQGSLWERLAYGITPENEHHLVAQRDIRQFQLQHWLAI
T1 sequence (P34972 whole entry): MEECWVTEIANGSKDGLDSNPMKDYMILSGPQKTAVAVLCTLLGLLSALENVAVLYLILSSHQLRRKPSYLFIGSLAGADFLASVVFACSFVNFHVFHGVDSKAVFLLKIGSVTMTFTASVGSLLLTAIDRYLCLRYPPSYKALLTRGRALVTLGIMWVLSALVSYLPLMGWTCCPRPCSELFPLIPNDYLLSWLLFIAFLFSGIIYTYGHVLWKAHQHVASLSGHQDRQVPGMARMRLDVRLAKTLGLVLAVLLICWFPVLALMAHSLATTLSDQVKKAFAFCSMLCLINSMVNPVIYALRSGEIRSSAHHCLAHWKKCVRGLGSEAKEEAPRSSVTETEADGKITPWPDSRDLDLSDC

In the case of `NCc1ccc(C(=O)Nc2ccncc2F)cc1-c1cccc(C(=O)Nc2ccc(SC[C@H]3CCOC3=O)cc2)c1` [S-enantiomer], the “CB2 (h) (antagonist effect) (IC50)” value at CB2 (h) was “Inactive”. Further, the IC50 is more than 30 µM on M1 (h), 0.82 µM on MAO-A and 21 µM in assay [1].
With `NCc1ccc(C(=O)Nc2ccncc2F)cc1-c1cccc(C(=O)Nc2ccc(SC[C@@H]3CCOC3=O)cc2)c1` [R-enantiomer], the IC50 at CB2 (h) came to 38 µM; at M1 (h) it was 0.77 µM; at MAO-A, 4.3 µM; in assay [1] it was 8.9 µM.

The term IC50 denotes the midpoint of a concentration-inhibition curve.
